Results on one molecule are retold here after patent publication US20040048791A1, “Method for treating neoplastic cells using cycloprodigiosin or salt thereof” (priority 2002, published 2004).

The subject of one assay is HeLa cells. Briefly: DNA fragmentation (apoptosis) in HeLa cells. The assay is classed as cell-based. The following applies: cPrG-HCl together with TNFα, FIG. 1A, hydrochloride. The method, then: Cell culture: HeLa cells were cultured in Dulbecco's modified Eagle's medium supplemented with 10% fetal bovine serum and 50 μg/ml kanamycin at 37° C. in 5% CO2 in air.
Assay for apoptotic processes: Cell viability was determined by dye exclusion assay using 0.1% trypan blue. DNA fragmentation was analyzed as described previously (Kawauchi, K. et al. (1997) Biochem. Biophys. Res. Commun. 237, 543-547). In the caspase-3 assay, cells were disrupted by freeze-thaw in an extraction buffer (50 mM Tris-HCl, pH7.4, 1 mM EGTA, 5 mM EDTA, 5 mM MgCl2, 1 mM APMSF, 10 μg/ml pepstatin, 10 μg/ml leupeptin, and 1 mM DTT). Then the suspension was centrifuged at 15,000 rpm for 20 min, and the supernatants obtained were incubated at 37° C. for 60 min in a reaction buffer (50 mM Tris-HCl, pH7.4, 1 mM EDTA, 10 mM EGTA) with 20 μM of the fluorogenic substrate DEVD-AFC (Peptide Institute, Inc., Japan). Cleavage of the substrates was quantified by measuring the fluorescence of 7-amino-4-trifluomethyl coumarin released using a spectrofluorometer (Shimadzu RF5000) with excitation at 380 mn and emission at 460 nm.
HeLa cells were treated with TNFα and cPrG.HCl and the effect of cPrG.HCl on apoptosis was examined by measuring DNA fragmentation and survivability.

For a further assay, the system named is CRE binding factor. Description: CRE luciferase assay (pCRELuc) in COS-7 cells. The assay is classed as cell-based, African green monkey. The following applies: PMA 1 μg/ml 4 hours, FIG. 8. As to the method:
Here in order to analyze the effect of cPrG-HCl on the CRE binding factor, luciferase assay was carried out using a reporter plasmid (pCRELuc) in which the luciferase gene is linked downstream of the CRE sequence.
The pCRELuc was transfected in COS-7 cells. After 24 hours, the cells were pretreated with cPrG-HCl at a specified concentration for 1 hour and further stimulated with phorbol ester myristate acetate PMA (1 μg/ml) for 4 hours, after which luciferase activity was measured.

Another assay addresses T1, IκB kinase (IKK) (Homo sapiens, UniProt O14920+O15111).
T1 sequence (O15111 1-745): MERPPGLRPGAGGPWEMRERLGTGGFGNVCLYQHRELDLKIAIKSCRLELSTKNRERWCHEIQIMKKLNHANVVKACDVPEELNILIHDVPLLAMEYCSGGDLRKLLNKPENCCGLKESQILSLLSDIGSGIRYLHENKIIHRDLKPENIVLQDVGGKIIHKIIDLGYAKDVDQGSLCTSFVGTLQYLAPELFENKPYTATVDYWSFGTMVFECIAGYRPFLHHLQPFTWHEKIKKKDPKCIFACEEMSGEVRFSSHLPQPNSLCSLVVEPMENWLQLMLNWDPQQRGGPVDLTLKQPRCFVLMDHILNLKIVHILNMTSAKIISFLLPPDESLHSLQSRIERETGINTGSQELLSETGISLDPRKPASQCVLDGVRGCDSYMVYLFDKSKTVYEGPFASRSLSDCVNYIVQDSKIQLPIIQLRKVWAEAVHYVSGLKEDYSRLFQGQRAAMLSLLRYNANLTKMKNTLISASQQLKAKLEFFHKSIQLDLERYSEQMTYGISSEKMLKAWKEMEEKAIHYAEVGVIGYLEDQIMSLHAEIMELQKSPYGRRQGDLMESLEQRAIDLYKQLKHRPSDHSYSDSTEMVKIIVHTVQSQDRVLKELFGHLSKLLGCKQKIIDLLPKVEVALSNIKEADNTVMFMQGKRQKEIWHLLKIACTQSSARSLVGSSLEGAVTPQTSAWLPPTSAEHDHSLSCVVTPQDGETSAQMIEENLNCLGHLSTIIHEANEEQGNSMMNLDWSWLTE
T1 sequence (O14920 1-756): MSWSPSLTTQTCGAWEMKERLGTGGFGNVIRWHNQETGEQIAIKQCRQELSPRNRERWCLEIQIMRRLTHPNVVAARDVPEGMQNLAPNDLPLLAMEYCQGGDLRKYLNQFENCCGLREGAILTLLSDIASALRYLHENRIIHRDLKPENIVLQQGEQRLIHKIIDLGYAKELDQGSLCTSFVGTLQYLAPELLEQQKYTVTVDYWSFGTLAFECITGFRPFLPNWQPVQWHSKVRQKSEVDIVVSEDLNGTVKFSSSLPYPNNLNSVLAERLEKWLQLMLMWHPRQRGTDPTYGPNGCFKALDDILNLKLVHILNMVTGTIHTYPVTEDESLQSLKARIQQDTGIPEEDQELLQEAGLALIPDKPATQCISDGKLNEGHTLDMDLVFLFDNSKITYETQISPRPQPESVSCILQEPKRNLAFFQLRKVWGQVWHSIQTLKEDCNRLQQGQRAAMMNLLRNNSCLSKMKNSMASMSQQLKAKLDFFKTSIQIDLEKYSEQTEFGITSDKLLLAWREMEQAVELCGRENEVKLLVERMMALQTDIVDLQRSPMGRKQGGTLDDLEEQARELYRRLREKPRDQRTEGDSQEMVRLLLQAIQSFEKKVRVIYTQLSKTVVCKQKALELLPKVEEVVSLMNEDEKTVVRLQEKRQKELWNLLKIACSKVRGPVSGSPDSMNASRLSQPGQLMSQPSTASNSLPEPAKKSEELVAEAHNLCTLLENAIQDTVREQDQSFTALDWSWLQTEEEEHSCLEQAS
Briefly: IκB kinase activity in vitro. The assay is classed as biochemical. The following applies: FIG. 14, hydrochloride. The source says:
Accordingly, in order to identify the p65 kinase which cPrG-HCl suppressed, the effect of cPrG-HCl on PKA (FIG. 13), casein kinase II (CKII) (FIG. 12), and IκB kinase (IKK) (FIG. 14) was studied in vitro.

“Also recorded” adds a separate entry of the source. Where a name gives a salt, the structure may show the parent alone.

Consider `COC1=CC(c2ccc[nH]2)=N/C1=C\c1[nH]c(C)c2c1C(C)CCC2` (stereo not drawn) [cPrG-HCl, Cycloprodigiosin hydrochloride], for which, in the assay with HeLa cells, the DNA fragmentation entry is reported as “marked DNA fragmentation; also recorded: significant DNA fragmentation”. In addition, the “PMA-induced CRE-dependent transcriptional activity” value with CRE binding factor is “markedly suppressed”. The “effect on IκB kinase (IKK) activity” value on IκB kinase (IKK) was “does not directly suppress; also recorded: no suppressive effect”.
